# Reference: patent US9035051B1, “Ghrelin O-acyl transferase inhibitor” (Eli Lilly and Company, priority 2013, dated 2015)
# Legend:
# human GOAT = biological target: T1, human GOAT (Homo sapiens, UniProt Q96T53); test: In vitro cell free human GOAT enzymatic assay; type: biochemical; settings: GOAT-His/sf9 microsomal membrane enzyme preparation; ELISA of acyl-ghrelin; n=5
# T1 construct: His; made in house; host or cells: Sf9 insect cells (baculovirus, pAN51 vector); used as microsomal membrane preparation
# T1 sequence (Q96T53 1-435): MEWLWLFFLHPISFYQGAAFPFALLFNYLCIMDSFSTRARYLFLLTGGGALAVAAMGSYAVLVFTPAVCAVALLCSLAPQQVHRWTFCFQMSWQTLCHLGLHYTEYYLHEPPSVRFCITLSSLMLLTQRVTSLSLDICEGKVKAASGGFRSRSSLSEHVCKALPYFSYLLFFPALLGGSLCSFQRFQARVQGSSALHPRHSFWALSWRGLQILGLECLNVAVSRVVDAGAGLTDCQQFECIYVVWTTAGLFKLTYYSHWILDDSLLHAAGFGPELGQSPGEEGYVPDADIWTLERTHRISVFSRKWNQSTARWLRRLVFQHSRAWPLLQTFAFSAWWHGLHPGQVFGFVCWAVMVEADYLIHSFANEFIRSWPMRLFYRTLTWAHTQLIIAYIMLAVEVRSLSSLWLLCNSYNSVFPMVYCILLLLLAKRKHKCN
# Method: Human GOAT gene (Accession number: NM_001100916) is subcloned to pAN51 baculoviral expression vector. Baculovirus stock is prepared following the Bac-to-Bac Protocol provided by the vendor, Invitrogen, California, USA. Five milliliters of human GOAT baculoviral stock are added to 500 mL Sf9 cells in HyQ SFX-Insect™ media (HyClone catalog number SH30278.02) at the density of 1×10^6 cells per milliliter in a 2 L Erlenmeyer flask. The flask with human GOAT gene infected Sf9 cells is put on a plate shaker at 120 rpm at 28° C. for 48 h. After 48 h incubation, cells are centrifuged at 1,000×g for 10 min at 4° C. The cell pellets are collected and stored at −80° C. in a freezer until ready for further processing.
# One gram cell pellets are suspended in 9 mL chilled homogenization buffer (50 mM Tris-HCl, 250 mM sucrose, adjusted to pH 7.5, and sterile filtered through 0.2 μm Millipore filter). The cell suspension is transferred to a Dounce glass homogenizer. Cell pellets are homogenized with 40 strokes on ice. The homogenate is centrifuged at 3,000 rpm in a Beckman swing bucket rotor at 4° C. for 10 min to remove unbroken cells. […]
# Prepare ELISA plates (STREPTAVIDIN SPECTRAPLATE™ 384, Perkin Elmer) by blocking with 2% Heat-Inactivated FBS in PBS (40 μL) (Invitrogen) blocking buffer for 3 h. […] Read plates at 450 nm using an Envision Multilabel plate reader. […]
# GOAT enzyme = biological target: T2, GOAT enzyme (Mus musculus, UniProt P0C7A3); test: In vivo dose dependent 3 day BID study for GOAT inhibitor (plasma AG and UAG by ELISA); design: species or system male C57BL/6 mice; settings: 3 days; for AG (% of control) / AG/Total-ghrelin (% of vehicle control) / UAG (% of vehicle control) / increase of UAG: plasma; for increase of UAG / decrease of plasma AG: vs vehicle; for reduction in AG to total ghrelin ratio: vs vehicle-treated control animals
# T2 construct: endogenous in cells; host or cells: male C57BL/6 mice (whole animal, oral dosing; plasma AG/UAG read-out)
# T2 sequence (P0C7A3 1-435): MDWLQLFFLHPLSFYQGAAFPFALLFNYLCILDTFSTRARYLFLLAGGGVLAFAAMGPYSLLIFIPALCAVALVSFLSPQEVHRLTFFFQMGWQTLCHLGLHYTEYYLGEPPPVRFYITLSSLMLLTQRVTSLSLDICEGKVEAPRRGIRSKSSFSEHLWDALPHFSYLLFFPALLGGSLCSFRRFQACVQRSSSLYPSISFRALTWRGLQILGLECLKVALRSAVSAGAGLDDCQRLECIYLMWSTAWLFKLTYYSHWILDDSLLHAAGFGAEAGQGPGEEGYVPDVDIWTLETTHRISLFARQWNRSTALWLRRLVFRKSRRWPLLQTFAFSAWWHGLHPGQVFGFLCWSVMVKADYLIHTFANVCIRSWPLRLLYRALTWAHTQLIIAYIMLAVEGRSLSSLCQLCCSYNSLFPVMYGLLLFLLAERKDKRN
# Method: Comparing the change in the ratio of AG to total ghrelin in the compound treated group and that of the vehicle treated group reflects the degree of GOAT enzyme inhibition in vivo, due to the dynamic processing of UAG to AG by the GOAT enzyme. In the in vivo pharmacodynamic studies herein, the levels of AG and UAG in plasma and stomach in the vehicle and compound treated groups are measured by ELISA specifically to these two analytes. The total ghrelin level of each sample is computed as the sum of AG and UAG by these ELISA measurements. The ratio of AG to total ghrelin is defined by the level of AG in each sample divided by the level of total ghrelin in the same sample. The levels of AG, UAG and ratio of AG to total ghrelin in the vehicle treated group is computed and set as 100%. The relative change of these parameters in the compound treated group is then computed to determine the effectiveness of the test compound.
# Purchase male C57BL/6 mice from Harlan (Indianapolis, Ind.) at 9 weeks of age. House the mice individually in a temperature-controlled (24° C.) facility with a 12 h light/dark cycle (lights on 2200 h), and allow free access to a standard rodent chow (diet 2014, Harlan) and water. Typically, use the mice when they are 10-13 weeks of age at the time of the study. On day 0 of the experiment, randomize the mice into treatment groups (N=7/group) so each group has similar mean body weights. On day 1 and day 2, treat the animals with vehicle (1% hydroxyethylcellulose, 0.25% Tween 80, 0.05% antifoam) or test compound prepared in the vehicle as suspension at various dosages by oral gavage at 7 am and 7 pm. On day 3, fast the animals, move them into clean cages and dose with vehicle or the test compound again at 8 am by oral gavage. That same day at 1 pm, sacrifice the animals by decapitation to collect blood. For details of blood collection and plasma treatments see Blood collection and Extraction of Ghrelin from Plasma section below.
# Collect approximately 600 μL blood into a pre-weighed EDTA tube containing 600 μL (defined as Vpreservative) freshly-prepared preservative (4 mM PEFABLOC® [4-(2-aminoethyl) benzenesulfonyl fluoride hydrochloride], 72 mM NaCl, 58 mM NaF, 0.032 N hydrochloric acid, pH 3.0) and mix immediately. Weigh the tube again and keep on ice. To accurately determine the exact blood volume of each sample using this blood collection procedure, the weight of the blood for each mouse is computed using the following equation: Weight of Blood=(Weight of the tube containing Blood+preservative)−(Weight of the tube containing preservative) Blood volume(Vblood)=(Weight of blood)/1.06
# Within 15 minutes after the blood collection, samples are centrifuged at 5000 rpm at 4° C. for 8 min Remove plasma (650 μL) to a 5 mL glass tube containing 1 N hydrochloric acid (65 μL), mix and keep on ice.
# AG and UAG are extracted from plasma using SEP-PAK®_C18 column to remove interference prior to performing the ELISA. The solid phase extraction of AG and UAG peptides by SEP-PAK®_C18 columns can be performed on a vacuum manifold (Waters Corp) or using a peristaltic pump. The sample SEP-PAK®_column extraction procedure is independently applied to the plasma sample obtained from each individual mouse. The general extraction protocol is described as follows.
# All solutions used for the entire protocol of the SEP-PAK® column extraction should be at ice cold condition. Wet SEP-PAK®_columns (WAT054960, Waters Corp, Milford Mass.) with 99.9% ACN/0.1% TFA (1 mL of solution of 100 mL ACN/0.1 mL TFA). […] Once liquid is removed from the column, stop the pressure. Equilibrate the columns with 3% ACN/0.1% TFA (1 mL of 97 mL water, 3 mL ACN, 0.1 mL TFA). […] Dilute approximately 650 μL acidified plasma (defined as Vplasma added to column) to 1.4 mL ice cold 0.1% TFA. Load all diluted acidified plasma from the previous step onto the columns. […] Wash with 3% ACN/0.1% TFA (0.9 mL of 97 mL water, 3 mL ACN, 0.1 mL TFA). […] Repeat the wash two more times. […]
compound,measurement,setting,value
"Cc1nc(N)c(CCC2CCN(C(=O)[C@H](C)NC(=O)C3CC3)CC2)c(Cl)n1 [Example 1, N-[(1S)-2-[4-[2-(4-Amino-6-chloro-2-methyl-pyrimidin-5-yl)ethyl]-1-piperidyl]-1-methyl-2-oxo-ethyl]cyclopropanecarboxamide]",IC50,human GOAT,~0.192 µM
same,AG (% of control),GOAT enzyme; 0.3 mg/kg oral gavage BID,101 ± 025 % of control
same,AG/Total-ghrelin (% of vehicle control),GOAT enzyme; 0.3 mg/kg oral gavage BID,61 ± 04 % of vehicle control
same,UAG (% of vehicle control),GOAT enzyme; 0.3 mg/kg oral gavage BID,224 ± 035 % of vehicle control
same,increase of UAG,GOAT enzyme; 0.3 mg/kg oral gavage BID,2.24 fold
same,decrease of plasma AG,GOAT enzyme; 0.3 mg/kg oral gavage BID,−1%
same,reduction in AG to total ghrelin ratio,GOAT enzyme; 0.3 mg/kg oral gavage BID,39%
same,AG (% of control),GOAT enzyme; 1 mg/kg oral gavage BID,95 ± 018 % of control
same,AG/Total-ghrelin (% of vehicle control),GOAT enzyme; 1 mg/kg oral gavage BID,46 ± 011 % of vehicle control
same,UAG (% of vehicle control),GOAT enzyme; 1 mg/kg oral gavage BID,282 ± 045 % of vehicle control
same,increase of UAG,GOAT enzyme; 1 mg/kg oral gavage BID,2.82 fold
same,decrease of plasma AG,GOAT enzyme; 1 mg/kg oral gavage BID,5%
same,reduction in AG to total ghrelin ratio,GOAT enzyme; 1 mg/kg oral gavage BID,54%
same,AG (% of control),GOAT enzyme; 3 mg/kg oral gavage BID,55 ± 06 % of control
same,AG/Total-ghrelin (% of vehicle control),GOAT enzyme; 3 mg/kg oral gavage BID,29 ± 04 % of vehicle control
same,UAG (% of vehicle control),GOAT enzyme; 3 mg/kg oral gavage BID,253 ± 031 % of vehicle control
same,increase of UAG,GOAT enzyme; 3 mg/kg oral gavage BID,2.53 fold
same,decrease of plasma AG,GOAT enzyme; 3 mg/kg oral gavage BID,45%
same,reduction in AG to total ghrelin ratio,GOAT enzyme; 3 mg/kg oral gavage BID,71%
same,AG (% of control),GOAT enzyme; 10 mg/kg oral gavage BID,52 ± 010 % of control
same,AG/Total-ghrelin (% of vehicle control),GOAT enzyme; 10 mg/kg oral gavage BID,23 ± 04 % of vehicle control
same,UAG (% of vehicle control),GOAT enzyme; 10 mg/kg oral gavage BID,289 ± 044 % of vehicle control
same,increase of UAG,GOAT enzyme; 10 mg/kg oral gavage BID,2.89 fold
same,decrease of plasma AG,GOAT enzyme; 10 mg/kg oral gavage BID,48%
same,reduction in AG to total ghrelin ratio,GOAT enzyme; 10 mg/kg oral gavage BID,77%
